Assay results taken from patent publication US11873298B2, “Compounds and uses thereof” (JANSSEN PHARMACEUTICA NV, priority 2017, dated 2024).
Several values for one entry are separate records, joined by “and”; a condition that tells them apart may be missing. Equal values may be shown once.

How the values were obtained:
Assay type in all cases: cell-based
SCD5 = target: T1, SCD5 (Homo sapiens, UniProt Q86SK9); assay: Growth inhibition of humanized yeast strain expressing SCD5 as sole desaturase; details: for IC50 / SCD5 % Max Inhibition: humanized yeast strain expressing SCD5
T1 construct: host or cells: S. cerevisiae ole1Δ strain (W303 pdr1Δ pdr3Δ background), plasmid pRS316 with TDH3 promoter and CYC1 terminator
T1 sequence (Q86SK9 1-330): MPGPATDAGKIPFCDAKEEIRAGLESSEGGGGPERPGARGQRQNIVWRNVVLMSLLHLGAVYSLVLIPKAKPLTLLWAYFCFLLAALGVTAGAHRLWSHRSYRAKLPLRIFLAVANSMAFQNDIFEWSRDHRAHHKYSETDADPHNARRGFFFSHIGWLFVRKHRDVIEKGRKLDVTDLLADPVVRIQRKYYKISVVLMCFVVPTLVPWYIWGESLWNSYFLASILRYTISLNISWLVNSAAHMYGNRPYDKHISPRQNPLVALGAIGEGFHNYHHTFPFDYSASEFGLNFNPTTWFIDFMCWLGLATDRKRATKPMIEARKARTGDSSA
Method in brief: (§1)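 Measured by optical density at 600 nm, growth of desaturase-dependent yeast (OLE1 deleted; human SCD1, human SCD5 or yeast Ole1 supplied from plasmid) was scored after 24 h (Ole1) or 40 h (SCD1, SCD5) at 30° C. in galactose media lacking uracil with DMSO-delivered compound.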

Ole1 = target: T2, Ole1 (Saccharomyces cerevisiae, UniProt P21147); assay: Growth inhibition of yeast strain expressing Ole1 as sole desaturase; details: for IC50 / OLE1 % Max Inhibition: yeast strain expressing Ole1 as sole desaturase
T2 construct: expressed in transfected cells; host or cells: S. cerevisiae ole1Δ strain (W303 pdr1Δ pdr3Δ background), plasmid pRS316 with TDH3 promoter and CYC1 terminator
T2 sequence (P21147 1-510): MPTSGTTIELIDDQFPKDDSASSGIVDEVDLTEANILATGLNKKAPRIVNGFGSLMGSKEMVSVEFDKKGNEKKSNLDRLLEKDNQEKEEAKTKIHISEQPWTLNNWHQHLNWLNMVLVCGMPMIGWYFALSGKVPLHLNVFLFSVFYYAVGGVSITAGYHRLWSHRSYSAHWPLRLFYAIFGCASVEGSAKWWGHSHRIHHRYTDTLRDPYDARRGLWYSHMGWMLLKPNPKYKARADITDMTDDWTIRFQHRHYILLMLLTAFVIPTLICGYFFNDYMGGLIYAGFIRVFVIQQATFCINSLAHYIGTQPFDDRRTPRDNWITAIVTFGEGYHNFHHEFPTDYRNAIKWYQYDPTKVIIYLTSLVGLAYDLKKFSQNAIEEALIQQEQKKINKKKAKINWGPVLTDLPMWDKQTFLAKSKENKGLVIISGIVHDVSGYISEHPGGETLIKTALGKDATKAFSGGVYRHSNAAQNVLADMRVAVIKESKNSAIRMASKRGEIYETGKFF
Procedure: Strain oleΔ (yeast ole1 deletion mutant) was constructed by deleting OLE1 with NAT-MX6 in BY4741, amplifying the deletion cassette from the genomic DNA of the resulting strain with primers flanking the ORF by 1000 bp upstream and downstream, transforming the resulting deletion cassette into W303 pdr1Δ pdr3Δ, and plating transformants on YPD media containing G418 (200 μg/mL) and nourseothricin ([…]) with 0.01% TWEEN®-20 and 0.5 mM oleic and palmitoleic acids.
The coding sequence of yeast OLE1 was also cloned into this plasmid). These clones were then transformed into the ole1Δ strain and plated on CSM-Ura media (CSM lacking uracil) with 2% glucose (w/v) and independent colonies were isolated and amplified.
All compound profiling experiments were performed using the same basic protocol. Different genetic backgrounds (e.g., gene deletions) or conditions (e.g., addition of oleic and palmitoleic acid) were replaced as indicated below.
Yeast were cultured using standard techniques in complete synthetic media (CSM) and yeast nitrogen base supplemented with 2% (w/v) carbon source (glucose, raffinose, or galactose) to regulate the expression of the toxic disease protein. An initial starter culture was inoculated in 3 mL CSM-Glucose media and incubated overnight in a 30° C. shaker incubator (225 rpm). Saturated morning cultures were then diluted 1:20 in fresh CSM-Raffinose media and grown for 6 h to an OD600 (optical density) of ˜0.4-0.8 at 30° C. with shaking.
Compound administration was performed in two separate steps. First, 15 μL of CSM-Galactose (induces expression of toxic protein) was dispensed into clear 384 well assay plates using a MULTIDROP™ Combi reagent dispenser. […] The cultures described above were then diluted to a 2× concentration (0.03 and 0.08 for alpha-synuclein and ApoE, final ODsoo of 0.015 and 0.04) in CSM-Galactose. For wild-type and Ole1/SCD1/SCD5 plasmid-containing strains, the 2× cell density was 0.02. […] For 96-well assays (FIGS. 1A and 1B), compound dilutions in DMSO were generated in 96 well plates and 1 μL was manually pipetted into 96 well clear bottom assay plates.
For experiments using a plasmid-borne copy of Ole1, SCD1, or SCD5 (FIGS. 3B, 6, and 7), media lacking uracil (SX-Ura, where X is glucose, raffinose, or galactose), was used for all steps of the compound profiling protocol to ensure its maintenance throughout the assay.
After yeast delivery, assay plates were incubated under humidified conditions at 30° C. for 24 to 40 h. ApoE4 rescue experiments were stopped at 24 h, aSyn experiments at 40 h, Ole1 at 24 h, and SCD1/SCD5 at 40 h. The growth of yeast was monitored by reading the ODsoo of each well using a microplate reader (Perkin Elmer EnVision™).

SCD1 = target: T3, SCD1 (Homo sapiens, UniProt O00767); assay: Growth inhibition of humanized yeast strain expressing SCD1 as sole desaturase; details: humanized yeast strain expressing SCD1
T3 construct: host or cells: S. cerevisiae ole1Δ strain (W303 pdr1Δ pdr3Δ background), plasmid pRS316 with TDH3 promoter and CYC1 terminator
T3 sequence (O00767 1-359): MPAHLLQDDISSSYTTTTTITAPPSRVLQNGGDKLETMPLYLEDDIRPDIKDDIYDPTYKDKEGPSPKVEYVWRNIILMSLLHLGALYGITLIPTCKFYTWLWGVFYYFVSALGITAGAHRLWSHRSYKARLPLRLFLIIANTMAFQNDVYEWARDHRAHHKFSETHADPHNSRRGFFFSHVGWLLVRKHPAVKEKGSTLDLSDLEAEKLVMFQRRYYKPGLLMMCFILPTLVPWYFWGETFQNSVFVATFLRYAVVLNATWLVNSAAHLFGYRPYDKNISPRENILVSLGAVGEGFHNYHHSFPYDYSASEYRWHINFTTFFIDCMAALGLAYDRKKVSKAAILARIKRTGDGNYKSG
Method in brief: as §1

Row | SMILES | IC50 (SCD5) [µM] | SCD5 % Max Inhibition (SCD5) | IC50 (Ole1) | OLE1 % Max Inhibition (Ole1) | SCD1 % Max Inhibition (SCD1) | IC50 (SCD1) [µM] | half-maximal inhibitory concentration (IC50) (SCD5; SCD5 humanized strain, FIG. 6) | growth of yeast expressing OLE1 in presence of inhibitor (Ole1; FIG. 6)
1 | Cc1nn(C)c2cc(-c3noc(C4CCN(C(=O)c5ccccc5)CC4)n3)ccc12 [Compound 280] | > 45 | 8.86% | > 45 µM | 17.18% | 11.48% |  |  | 
2 | Cc1nn(C)c2cc(-c3noc(C4CCN(C(=O)CNC(=O)c5ccc(Cl)cc5)CC4)n3)ccc12 [Compound 269] | > 45 | 8.38% and 5.30% | > 45 µM | 6.62% and 4.57% | 38.78% and 25.11% |  |  | 
3 | Cc1nn(C(C)C)c2cc(-c3noc(C4CCN(C(=O)CNC(=O)c5ccccc5)CC4)n3)ccc12 [Compound 281] | > 45 | 18.03% and 12.39% | 33.8 µM and > 45 µM | 60.23% and 32.09% | 84.97% and 68.90% | ≥ 45 |  | 
4 | CCn1nc2cc(-c3noc(C4CCN(C(=O)OC(C)(C)C)CC4)n3)ccc2c1C [Compound 342] | > 45 | 43.5% | > 45 µM | 80.9% | 75.9% | > 45 |  | 
5 | CCOc1ccc(-c2noc(C3CCN(C(=O)CN4Cc5cc(F)ccc5C4=O)CC3)n2)cc1OC [Compound 176] | > 45 | 83.50% | > 45 µM | 3.62% | 107.22% | > 45 |  | 
6 | Cc1ccc(N2CC(C(=O)N3CCC(c4nc(-c5ccc6c(C)nn(C)c6c5)no4)CC3)CC2=O)cn1 (centres unmarked) [Compound 179] | > 45 | 85.02% | 38.7 µM | 76.70% | 106.53% | > 45 |  | 
7 | CCOc1ccc(-c2noc(N3CCC(C(=O)N4CCO[C@H](c5ccccc5)C4)CC3)n2)cc1OC [Compound 218] | > 45 | 25.15% | > 45 µM | 4.63% | 48.31% | > 45 |  | 
8 | N#Cc1cccc(N2CC(C(=O)N3CCC(c4nc(Cl)no4)CC3)CC2=O)c1 (centres unmarked) [Compound 350] |  | 56.3% | > 45 µM | 71.00% |  |  |  | 
9 | O=C(C1CC(=O)N(c2cccc(Cl)c2)C1)N1CCC(c2nc(Cl)no2)CC1 (centres unmarked) [Compound 348] |  | 59.2% | > 45 µM | 74.78% |  |  |  | 
10 | CC(C)n1ncc2ccc(-c3noc(N4CCN(C(=O)OC(C)(C)C)CC4)n3)cc21 [Compound 349] | > 45 | 0.2% | > 45 µM | 84.00% |  |  |  | 
11 | CC(C)n1ncc2ccc(-c3noc(C4CCN(C(=O)c5ccccc5)CC4)n3)cc21 [Compound 346] | > 45 | 1.1% | > 45 µM | 12.12% |  |  |  | 
12 | CC(C)n1ncc2ccc(-c3noc(C4CCN(C(=O)c5ccccc5Cl)CC4)n3)cc21 [Compound 345] | > 45 | 2.2% | > 45 µM | 6.63% |  |  |  | 
13 | CC(C)n1ncc2ccc(-c3noc(C4CCN(C(=O)c5cccc(F)c5)CC4)n3)cc21 [Compound 344] | > 45 | 1.1% | > 45 µM | 7.14% |  |  |  | 
14 | O=C(c1ccccc1)N1CCC(c2nc(Cl)no2)CC1 [Compound 351] |  | 57.3% | > 45 µM | 68.60% |  |  |  | 
15 | O=C(O)Cn1nnc(-c2cc(N3CCC(Oc4cc(F)ccc4Br)CC3)no2)n1 [MK-8245, reference compound] |  |  |  |  |  |  | low nanomolar | resistant
16 | CC(C)c1ccc(C(=O)N2CCC(c3nc(Cl)no3)CC2)cc1 [Compound 352] | > 45 | 44.5% | > 45 µM | 71.57% |  |  |  | 
